In general, pest or weed control refers to the degree to which the test organism was suppressed or injured, in per cent. A high value points to strong suppression.

The test system of test [1] is Crabgrass (CG). As to the kind of experiment: Pre-emergence herbicide test. The settings on record: Digitaria sanguinalis, pre-emergence, 336 h, two weeks after treatment; for pest or weed control at 8966.8 g/ha: 8 lb/acre. The test is classed as in vivo, Digitaria sanquinalis. Put shortly:
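Crabgrass (Digitaria sanquinalis) was surface seeded in 3' plastic pots of potting soil, covered with screened soil, and watered by sub-irrigation in greenhouse trays. Pots were seeded one day before spraying in a hood with a moving belt and fixed nozzle. Plants stayed in the greenhouse on sub-irrigation, and pre-emergence control was rated visually two weeks after treatment.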

The subject of test [2] is Johnson grass (JG). The experiment in a line: Pre-emergence herbicide test. The note with it: Sorghum halepense, 336 h, two weeks after treatment; for pest or weed control at 8966.8 g/ha: 8 lb/acre. The test is classed as in vivo, Sorgum helepense. Put shortly:
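Visual injury or control rating two weeks post-treatment, after pre-emergence spray of 8 or 4 lbs active per acre (38 gal/acre) onto pots sown the previous day. Greenhouse watering by sub-irrigation only.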

Test [3] relates to Amaranth pigweed (PW). The experiment in a line: Pre-emergence herbicide test. In kind it is in vivo, Amaranthus retroflexus. The settings on record: 336 h, two weeks after treatment; for pest or weed control at 8966.8 g/ha: 8 lb/acre. The essentials:
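Visual injury or control ratings were made at two weeks on pre-emergence pots, sub-irrigated in the greenhouse. Seeds were sown a day before a hood spray delivering 8 lbs/acre (or 4 lbs/acre) of compound in 38 gallons per acre.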

The test system of test [4] is Turnip (TP). The experiment in a line: Pre-emergence herbicide test. The test is classed as in vivo, Brassica sp. The settings on record: Brassica rapa, pre-emergence, 336 h, two weeks after treatment; for pest or weed control at 8966.8 g/ha: 8 lb/acre. The essentials: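 In this pre-emergence greenhouse test, turnip was seeded on the surface of potting soil in 3' plastic pots, lightly covered with screened soil, and watered from below. One day later the pots were sprayed in a belt-fed spray hood. Watering continued only by sub-irrigation, and percent control was visually scored two weeks after treatment.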

In test [5] the test system is Cotton (CT). As to the kind of experiment: Pre-emergence herbicide test. In kind it is in vivo, Gossypium hirsutum var. DPL smooth leaf. The note with it: Gossypium hirsutum, 336 h, two weeks after treatment; for pest or weed control at 8966.8 g/ha: 8 lb/acre. Put shortly: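 Visual injury/control ratings were taken at two weeks post-spray. Pots seeded a day earlier received compound pre-emergence at 8 lbs/acre, or 4 lbs/acre, in a 38 gallon/acre spray volume, and were then held in the greenhouse, watered only from below.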

In test [6] the test system is Corn (CN). The experiment in a line: Pre-emergence herbicide test. The test is classed as in vivo. The note with it: Zea mays, 336 h, two weeks after treatment; for pest or weed control at 8966.8 g/ha: 8 lb/acre. The essentials: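 Visual injury/control ratings were made 2 weeks post-spray on corn pots seeded (4 seeds, seed-diameter depth) the day before treatment. Application was a belt-hood spray of 38 gal/acre delivering 8 lbs active per acre, with a 4 lbs/acre rate also formulated. Watering was by sub-irrigation throughout.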

In test [7] the test system is Bean (BN). The experiment in a line: Pre-emergence herbicide test. The note with it: Phaseolus vulgaris, 336 h, two weeks after treatment; for pest or weed control at 8966.8 g/ha: 8 lb/acre. The test is classed as in vivo, Phaseolus vulgaris var. Black Valentine. Put shortly: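 Visual injury/control ratings were taken two weeks post-spray on sub-irrigated Phaseolus vulgaris var. Black Valentine. Pots were sown a day before treatment. Pre-emergence spray delivered 8 lbs actual compound per acre (or 4 lbs/acre) at 38 gallons per acre.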

Test [8] concerns Crabgrass (CG). As to the kind of experiment: Post-emergence herbicide test. The settings on record: Digitaria sanguinalis, post-emergence, 336 h, two weeks after treatment; for pest or weed control at 8966.8 g/ha: 8 lb/acre. The test is classed as in vivo, Digitaria sanquinalis. Put shortly: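 Crabgrass (Digitaria sanquinalis) was surface seeded individually in 3' plastic pots of potting soil, covered with screened soil, and watered by sub-irrigation in greenhouse trays. Planting was staggered so seedlings reached the target stage together. Post-emergence sprays were applied in a hood with a removable belt and fixed nozzle, and control was visually rated two weeks after treatment.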

In test [9] the test system is Johnson grass (JG). The experiment in a line: Post-emergence herbicide test. The test is classed as in vivo, Sorgum helepense. The settings on record: Sorghum halepense, 336 h, two weeks after treatment; for pest or weed control at 8966.8 g/ha: 8 lb/acre. The essentials: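 Visual injury or control scores taken 2 weeks after a post-emergence spray of pot-grown plants. Application was 8 lbs/acre (or 4 lbs/acre) in 38 gal/acre. Plants were held in the greenhouse with sub-irrigation only.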

The subject of test [10] is Barnyard grass (BG). As to the kind of experiment: Post-emergence herbicide test. The test is classed as in vivo. The settings on record: Echinochloa crus-galli, 336 h, two weeks after treatment; for pest or weed control at 8966.8 g/ha: 8 lb/acre. Put shortly: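 Greenhouse pot-grown barnyard grass seedlings sprayed post-emergence at 8 lbs active compound per acre (some at 4 lbs/acre) in 38 gallons per acre, then sub-irrigated. Injury or control rated visually two weeks after treatment.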

The test system of test [11] is Amaranth pigweed (PW). The experiment in a line: Post-emergence herbicide test. In kind it is in vivo, Amaranthus retroflexus. The settings on record: 336 h, two weeks after treatment; for pest or weed control at 8966.8 g/ha: 8 lb/acre. The essentials:
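Visual injury or control ratings were made two weeks after spraying, with greenhouse watering by sub-irrigation only. Treatment was post-emergence, when pigweed seedlings had 1 or 2 true leaves, at 8 lbs active compound per acre (4 lbs/acre formulations also made) in a 38 gallons-per-acre spray volume.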

Test [12] has as its system Turnip (TP). As to the kind of experiment: Post-emergence herbicide test. In kind it is in vivo, Brassica sp. The note with it: Brassica rapa, post-emergence, 336 h, two weeks after treatment; for pest or weed control at 8966.8 g/ha: 8 lb/acre. Put shortly: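 A greenhouse post-emergence herbicide test on turnip. Seeds were sown on the surface of potting soil in 3' plastic pots, lightly covered with screened soil and watered from below. Planting was timed so seedlings had 1 or 2 true leaves above the cotyledons at spraying, done in a hood with a fixed nozzle. Control or injury was scored by eye after two weeks.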

The subject of test [13] is Cotton (CT). The experiment in a line: Post-emergence herbicide test. In kind it is in vivo, Gossypium hirsutum var. DPL smooth leaf. The note with it: Gossypium hirsutum, post-emergence, 336 h, two weeks after treatment; for pest or weed control at 8966.8 g/ha: 8 lb/acre. Put shortly: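 This greenhouse post-emergence test measured how well spray treatments controlled cotton. Seedlings of Gossypium hirsutum var. DPL smooth leaf, with expanded cotyledons and a first true leaf 1' in length, were sprayed with 50 ml formulations in a belt-fed spray hood. They were then returned to the greenhouse and watered only by sub-irrigation. Injury was scored visually as % control after two weeks.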

Test [14] concerns Corn (CN). As to the kind of experiment: Post-emergence herbicide test. The settings on record: Zea mays, 336 h, two weeks after treatment; for pest or weed control at 8966.8 g/ha: 8 lb/acre. In kind it is in vivo. The essentials: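 Greenhouse seedlings grown in potting soil and sprayed post-emergence at 8 lbs compound/acre (formulations also made for 4 lbs/acre) in 38 gallons/acre spray volume. Watering by sub-irrigation only. Injury or control rated visually two weeks after treatment.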

Test [15] concerns Bean (BN). As to the kind of experiment: Post-emergence herbicide test. The test is classed as in vivo, Phaseolus vulgaris var. Black Valentine. The settings on record: Phaseolus vulgaris, post-emergence, 336 h, two weeks after treatment; for pest or weed control at 8966.8 g/ha: 8 lb/acre. Put shortly:
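Bean seedlings (Phaseolus vulgaris var. Black Valentine) were grown in potting soil in 3' pots until the primary leaves expanded. They were then sprayed under a hood with a removable belt and fixed nozzle, using 50 ml formulations. Afterward they were returned to the greenhouse and watered only by sub-irrigation. Percent control was judged visually two weeks after treatment.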

Test [16] has as its system variety of crops and weed species. The experiment in a line: Pre- and post-emergence herbicide tests, overall assessment of Tables III-VI. In kind it is in vivo. The settings on record: data of Tables III-VI. The protocol:
All crop and weed species were planted individually in 3' plastic pots containing potting soil. Four seeds each of corn, cotton, and snapbeans were seeded to a depth equal to the diameter of the seed. All other species were surface seeded and sprinkled with screened soil in an amount sufficient to cover the seed. Immediately after planting, all pots were watered by sub-irrigation in greenhouse trays. Pots for the pre-emergence phase were seeded one day before treatment.
Compounds were tested at rates of application equivalent to 8 lbs. of actual compound per acre in a spray volume of 38 gallons per acre. Spray hood constants required to deliver the above volume are as follows:
Two weeks after treatment, pre- and post-emergence injury or control was visually rated, and the results were as shown in the following tables. Pre-emergence data are provided in TABLE III and post-emergence data are provided in TABLE IV, for compounds having the formula illustrated in TABLE I. Correspondingly, pre-emergence and post-emergence data, respectively, are set forth in TABLES V AND VI, for compounds having the formula illustrated in TABLE II.

For test [17], the system named is Yellow foxtail grass (YF). The experiment in a line: Pre-emergence herbicide test. The test is classed as in vivo, Setaria glauca. The note with it: Setaria, 336 h, two weeks after treatment; for pest or weed control at 8966.8 g/ha: 8 lb/acre. The essentials:
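Visual rating of injury/control made two weeks after a pre-emergence spray of 8 or 4 lbs active per acre (38 gal/acre) onto pots seeded the previous day. Greenhouse watering by sub-irrigation only.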

Test [18] relates to Barnyard grass (BG). The experiment in a line: Pre-emergence herbicide test. The settings on record: Echinochloa crus-galli, 336 h, two weeks after treatment; for pest or weed control at 8966.8 g/ha: 8 lb/acre. In kind it is in vivo. The essentials:
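Greenhouse pre-emergence spray test: pots seeded one day before treatment received compound at rates of 8 or 4 lb/acre (38 gal/acre). Visual injury/control scores for Echinochloa crus-galli taken at two weeks, with watering by sub-irrigation only.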

Test [19] concerns Yellow foxtail grass (YF). The experiment in a line: Post-emergence herbicide test. The test is classed as in vivo, Setaria glauca. The settings on record: Setaria, 336 h, two weeks after treatment; for pest or weed control at 8966.8 g/ha: 8 lb/acre. Put shortly:
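Visual rating of injury/control made 2 weeks post-spray. Seedlings at a uniform growth stage in soil-filled pots received a hood spray of 8 lbs/acre active compound, 38 gallons/acre volume, with a 4 lbs/acre rate also formulated. Watering was by sub-irrigation only.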

Take `CCc1nnc(NC(=O)N(C)C)s1` [Example 20]: the pest or weed control at 8966.8 g/ha in test [1] worked out at 90%; in [2], 70%; in test [3], 90%; in test [4] it was 100%; in test [5], 30%; in test [6], 30%. Further, the pest or weed control at 8966.8 g/ha was 10% in test [7]; 20% in [8]; 20% in test [9]; 20% in test [10]; 100% in test [11]; 90% in [12]. Moreover, the pest or weed control at 8966.8 g/ha worked out at 80% in [13], 30% in [14] and 50% in [15]. The “herbicidal effectiveness / selectivity, in words” value in test [16] is “more selective when applied to a certain crop or weed species”.

On to `CCNC(=O)Nc1nnc(SC)s1` [Example 28], for which the pest or weed control at 8966.8 g/ha in [1] was determined as 40%; in test [17], 30%; in [2], 20%; in test [18], 50%; in test [3] it was 30%; in [4], 0%. Further, the pest or weed control at 8966.8 g/ha in [5] came to 40%; in test [6], 10%; in [7], 80%; in test [8], 20%; in test [19], 20%; in test [9] it was 20%. For the same compound, the pest or weed control at 8966.8 g/ha came to 20% in test [10]; 30% in test [11]; 50% in test [12]; 70% in [13]; 20% in test [14]; 50% in test [15].

For the compound `CNC(=O)N(C)c1nnc(SC)s1` [Example 38], the pest or weed control at 8966.8 g/ha in test [1] was found to be 100%; in [17] it was 100%; in test [2] it was 80%; in [18], 100%; in test [3] it was 90%; in test [4], 100%. Besides, the pest or weed control at 8966.8 g/ha in test [5] amounted to 90%; in [6], 80%; in [7] it was 100%; in [8], 80%; in test [19], 100%; in test [9], 80%. For the same compound, the pest or weed control at 8966.8 g/ha amounted to 90% in test [10]; 100% in test [11]; 100% in test [12]; 100% in test [13]; 100% in test [14]; 100% in [15].

As to `CN(C)C(=O)N(C)c1nnc(C(C)(C)C)s1` [Example 43], the pest or weed control at 4483.4 g/ha was determined as 100% in test [1] (4 lb/acre); 100% in test [17] (4 lb/acre); 90% in [2] (4 lb/acre); 100% in test [18] (4 lb/acre); 100% in test [3] (4 lb/acre); 100% in [4] (4 lb/acre). Besides, the pest or weed control at 4483.4 g/ha was 90% in test [5] (4 lb/acre); 90% in test [6] (4 lb/acre); 90% in test [7] (4 lb/acre); 100% in test [8] (4 lb/acre); 100% in [19] (4 lb/acre); 100% in test [9] (4 lb/acre). Besides, the pest or weed control at 4483.4 g/ha in test [10] (4 lb/acre), in test [11] (4 lb/acre), in [12] (4 lb/acre), in test [13] (4 lb/acre), in test [14] (4 lb/acre) and in [15] (4 lb/acre) was 100% each time.

Source of the values: patent US4175081A, “5-Substituted thiadiazole ureas” (priority 1977, dated 1979).
